Results published in patent US20020076693A1, “Novel cell surface receptor for HIV retroviruses, therapeutic and diagnostic uses” (priority 1997, published 2002).

Legend:
[1] = system: cell surface component (CEM and C8166 clones); assay: Competition for cell-surface binding of 8-MAP; parameters: species or system human; conditions: FACS competition
[2] = molecular target: P30/PHAPI (Homo sapiens, UniProt P39687); assay: Saturation of binding sites of P30/PHAPI
[3] = system: HIV-1 Ada-M; assay: HIV-1 Ada-M entry into HeLa P4-C5 cells (β-galactosidase); format: cell-based; conditions: HeLa P4-C5, β-galactosidase at 48 hours
Experimental: HeLa cells (P4-C5) were treated (incubation at 37° C., 30 min) with AZT (5 μM), (α-CD4 mAb CBT4 (5 μg/ml) before infection with the different HIV isolates in order to obtain the background β-galactosidase activity compared to untreated cells (Control). During the same time, the different HIV isolates were treated (incubation at room temperature, 15 min) with 1, 5, and 10 μg/ml of heparin before addition to untreated cells. The b-galactosidase activity was assayed at 48 hours post-infection as a measure of HIV entry (3 +L7).

[4] = system: HIV-1 Lai; assay: Binding of HIV particles to CEM cells (cell-associated p24); format: cell-based; conditions: 37° C., 1 hour; TASP 10 mM, mAb OKT4A 10 μg/ml, mAb anti-CD4 5 μg/ml, rabbit antibodies 100 μg/ml
Experimental: B. The binding of HIV particles to CEM cells. […] The binding of HIV particles was estimated as described in “Materials and Methods”. The ordinate gives the concentration of p24 associated with the cells, i.e. particles bound on the cell surface as well as particles (or cores) entered into cells. Each value represents the mean of two identical samples. Similar results were obtained in two other indepenent experiments.
CEM cells (5×10^6) were first preincubated (15 min, 37° C.) in the absence (Control) or presence of mAb anti-CD4 CB-T4 (5 μg/ml; histogram a-CD4), rabbit peptide purified antibodies against nucleolin, PHAP II and PHAP I at 100 μg/ml, or combination of antibodies as shown (at the same concentrations as when used alone) before the addition of HIV-1 Lai (material corresponding to 5 ng of p24), and further incubation at 37° C. for 1 hr. The cells were then washed and cell extracts were prepared to estimate the amount of HIV binding to cells (HIV bound on the surface+HIV entered into cells). The amount of virus particles was estimated by measuring the concentration of p24. The experimental conditions were as described previously (Krust et al., 1993; Callebaut et al., 1997b).
After incubation at 37° C. for 1 hour with gentle shaking, cells were diluted 10 fold in the culture medium and pelleted by centrifugation. […]

[5] = molecular target: P40/PHAPII (Homo sapiens, UniProt Q01105); assay: Saturation of binding sites of P40/PHAPII
Chain of P40/PHAPII (Q01105 1-277 isoform Q01105-2): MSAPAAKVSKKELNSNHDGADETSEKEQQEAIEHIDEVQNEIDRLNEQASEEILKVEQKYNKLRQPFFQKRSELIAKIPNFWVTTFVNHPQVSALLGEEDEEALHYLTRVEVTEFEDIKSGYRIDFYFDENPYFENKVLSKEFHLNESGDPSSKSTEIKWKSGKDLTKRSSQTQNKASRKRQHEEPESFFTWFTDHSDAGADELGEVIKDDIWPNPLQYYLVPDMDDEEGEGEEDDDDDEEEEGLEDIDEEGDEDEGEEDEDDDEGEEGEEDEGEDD

[6] = molecular target: CD4 (Homo sapiens, UniProt P01730); assay: BIAcore biosensor binding to soluble CD4; conditions: binding protein soluble recombinant CD4, BIAcore
[7] = system: V3 loop-BPs (nucleolin, PHAP II, PHAP I); assay: BIAcore biosensor binding to immobilized V3 loop-BPs; parameters: species or system human
[8] = system: HIV-1 AZT resistant, Saquinavir resistant, Nevirapine resistant; assay: Entry of HIV-1 isolates resistant to antiviral drugs into HeLa cells (β-galactosidase); format: cell-based; conditions: heparin 5 mg/ml
Experimental: HIV entry and replication, results in the activation of the HIV LTR, leading to the expression of the lacZ gene. Therefore, at 24 and 48 hours post-infection, the β-galactosidase activity could be measured in cell extracts directly. Consequently, this latter technique could be used to monitor HIV entry into cells. The HIV dose used corresponded to the amount of virus containing 20-40 ng/ml of p24.
In these experiments, the background values of the β-galactosidase activity were assesed by the samples incubated with the a-CD4 mAb. Furthermore, the effect of heparin (5 mg/ml) was investigated.

[9] = system: HIV-1 Bal; assay: Infection of human monocyte-derived macrophages by HIV-1 (p24); format: cell-based; conditions: HIV-1 BaL (TASP also Ada); p24 in supernatant
Experimental: Macrophages are infected with BaL or Ada HIV-1 viruses, in the presence of 2 μM, 1 μM or 0.1 μM of 5[Kψ (CH2N)PR]-TASP. Cells are preincubated during 30 min at 4° C. in the presence of 5[Kψ (CH2N)PR]-TASP before adding the virus. Every 3 days interval, the whole culture supernatant is collected and is replaced by RPMI 1640 culture medium supplemented with 20% fetal calf serum (FCS), 1% antibiotics, 1% glutamine, in addition to 5[Kψ (CH2N)PR]-TASP that is kept present in the culture medium until day 14 after in vitro infection. Virus production is quantitated by titration of p24 protein in the culture supernatant at different times (days) after in vitro infection. Each value represented in the graphs represents the mean of two test samples.
Macrophages are infected by the BaL VIH-1 virus in the presence of 100 μg/ml of anti-P95, anti-P40 and anti-P30 antibody. Cells are preincubated during 30 min at 4° C. in the presence of each kind of antibody before adding the virus. The antibodies are kept present in the culture medium during the whole infection period of time. […]
Cells are preincubated during 30 min at 4° C. in the presence of the different molecules either alone or in association before adding the virus. […] Virus production is quantitated by titration of p24 protein in the culture supernatant at different times (days) after in vitro infection. […]

[10] = binding protein(s) V3 loop-BPs, BIAcore

Chain of P30/PHAPI (P39687 whole entry): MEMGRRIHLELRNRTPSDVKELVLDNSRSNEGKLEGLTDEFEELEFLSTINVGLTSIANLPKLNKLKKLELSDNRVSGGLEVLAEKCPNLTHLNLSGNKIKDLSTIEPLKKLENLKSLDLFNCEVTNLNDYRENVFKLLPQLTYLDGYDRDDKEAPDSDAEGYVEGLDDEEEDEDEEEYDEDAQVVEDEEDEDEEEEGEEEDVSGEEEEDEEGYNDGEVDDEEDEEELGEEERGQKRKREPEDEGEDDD

5[Kψ(CH2N)PR]-TASP
concentration sufficient to block the binding of 10 μM of 8-MAP [1]: 1 µM | concentration for 100% saturation of the binding sites [2]: 8 µM | effect on HIV-1 Ada-M entry [3]: enhances | inhibition of binding of HIV particles to CEM cells [4]: 78% | concentration for 100% saturation of the binding sites [5]: 4 µM | ka (association rate constant) ([6]; listed as 5(KΨ(CH2N)PR)TASP): nb^b | ka (association rate constant) ([6]; listed as 5[KΨ(CH2N)PR]-TASP): No binding | Ka (equilibrium affinity constant) [7, 10]: 9.61e+09 M⁻¹ | ka (association rate constant) [7, 10]: 37.50 × 10^5 M^−1S^−1 | kd (dissociation rate constant) [7, 10]: 0.39 × 10^−3 S^−1 | equilibrium affinity constant Ka ([7]; binding to the V3 loop-BPs): 9.6e+09 M⁻¹ | effect on entry of drug-resistant HIV-1 isolates [8]: Inhibits Entry | effect on infection of human macrophages by HIV-1 [9]: inhibits, in a dose-dependent manner
